Test results: patent US20050209278A1, “Piperidinyl- and piperazinyl-sulfonylmethyl hydroxamic acids and their use as protease inhibitors” (priority 2002, published 2005)
Read-outs that look alike come from different tables or passages of the source.

What was measured:
[1] = molecular target: T1, MMP-9 (Homo sapiens, UniProt P14780); test: In vitro MMP inhibition, Ki determination (fluorogenic substrate II); type: biochemical
T1 construct: made in house; host or cells: MMP-9-transfected HT1080 cells (spent media)
T1 sequence (P14780 107-707 limits assumed): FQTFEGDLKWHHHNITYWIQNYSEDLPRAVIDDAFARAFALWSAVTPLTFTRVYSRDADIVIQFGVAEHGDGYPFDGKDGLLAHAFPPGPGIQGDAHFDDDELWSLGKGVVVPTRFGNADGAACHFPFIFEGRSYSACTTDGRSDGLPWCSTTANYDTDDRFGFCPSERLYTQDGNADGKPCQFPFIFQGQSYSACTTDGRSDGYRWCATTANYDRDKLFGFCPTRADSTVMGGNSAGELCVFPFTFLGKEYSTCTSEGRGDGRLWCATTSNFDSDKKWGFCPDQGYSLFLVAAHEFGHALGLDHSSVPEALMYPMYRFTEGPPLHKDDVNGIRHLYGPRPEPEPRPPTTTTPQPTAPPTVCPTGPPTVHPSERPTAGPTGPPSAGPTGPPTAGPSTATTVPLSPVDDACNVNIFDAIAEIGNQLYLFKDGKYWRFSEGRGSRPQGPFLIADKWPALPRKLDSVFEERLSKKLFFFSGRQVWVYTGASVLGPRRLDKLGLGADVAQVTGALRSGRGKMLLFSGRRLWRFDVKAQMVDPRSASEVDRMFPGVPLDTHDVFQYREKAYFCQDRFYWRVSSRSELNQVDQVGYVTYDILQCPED
Outline: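 HT1080-derived MMP-9, activated with APMA, trypsin or MMP-3, incubated 1 hr at room temperature with inhibitor and 4 μM fluorogenic substrate II (at or below Km) in pH 7.5 Tris/NaCl/CaCl2 buffer; ex 330/em 420 nm. Ki from Morrison-equation regression, without substrate correction.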

[2] = molecular target: T2, MMP-13 (Homo sapiens, UniProt P45452); test: as above; type: biochemical; settings: read-out: MMP-13 Ki
T2 construct: made in house; host or cells: baculovirus / insect cells
Outline: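 Ki determined with human recombinant MMP-13, baculovirus-expressed as proenzyme and activated with APMA. Fluorogenic MCA/Dpa substrate II at 4 μM (at or below Km) with low enzyme in Tris buffer pH 7.5 with CaCl2. Incubation was 1 h at room temperature, with fluorescence read at 330/420 nm.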

CCCCCCCOC1CCN(S(=O)(=O)C2(C(=O)NO)CCOCC2)CC1 [Example 406]
Ki ([1]; value outside parentheses): 0.76 nM
Ki ([2]; value outside parentheses): 1.28 nM

O=C(NO)C1(S(=O)(=O)N2CCN(c3nc(-c4ccccc4)cs3)CC2)CCOCC1 [Example 415]
Ki ([1]; value outside parentheses): > 10000 nM
Ki ([2]; value outside parentheses): 2420 nM

CCCCc1ccc(C2CCN(S(=O)(=O)C3(C(=O)NO)CCN(CCOC)CC3)CC2)nc1 [Example 397]
Ki ([1]; value outside parentheses): 0.09 nM
Ki ([2]; value outside parentheses): 0.54 nM

CCCCCC/C=C\C1CCN(S(=O)(=O)C2(C(=O)NO)CCOCC2)CC1 [Example 401]
Ki ([1]; value outside parentheses): 4.22 nM
Ki ([2]; value outside parentheses): 9.05 nM

O=C(NO)C1(S(=O)(=O)N2CCC(c3ccc(OCc4ccccc4)cn3)CC2)CCOCC1 [Example 398]
Ki ([1]; value outside parentheses): 5.67 nM
Ki ([2]; value outside parentheses): 0.15 nM

Cc1cccc(-c2csc(N3CCN(S(=O)(=O)C4(C(=O)NO)CCOCC4)CC3)n2)c1 [Example 413]
Ki ([1]; value outside parentheses): > 10000 nM
Ki ([2]; value outside parentheses): 4830 nM

CCc1ccc(-c2ccc(C3CCN(S(=O)(=O)C4(C(=O)NO)CCOCC4)CC3)nc2)cc1 [Example 393]
Ki ([1]; value outside parentheses): 4.86 nM
Ki ([2]; value outside parentheses): 1.09 nM

O=C(NO)C1(S(=O)(=O)N2CCC(c3ccc(-c4ccccn4)cn3)CC2)CCOCC1 [Example 409]
Ki ([1]; value outside parentheses): 13.6 nM
Ki ([2]; value outside parentheses): 22.3 nM

O=C(NO)C1(S(=O)(=O)N2CCC(c3ccc(-c4cccc(F)c4)cn3)CC2)CCOCC1 [Example 417]
Ki ([1]; value outside parentheses): 4.1 nM
Ki ([2]; value outside parentheses): 3.84 nM

CCCCc1ccc(C2(O)CCN(S(=O)(=O)C3(C(=O)NO)CCOCC3)CC2)nc1 [Example 420]
Ki ([1]; value outside parentheses): 80.3 nM
Ki ([2]; value outside parentheses): 175 nM

O=C(NO)C1(S(=O)(=O)N2CCC(c3ccc(N4CCCC4)cn3)CC2)CCOCC1 [Example 408]
Ki ([1]; value outside parentheses): 10.2 nM
Ki ([2]; value outside parentheses): 11 nM

O=C(NO)C1(S(=O)(=O)N2CCC(COCc3ccc(C(F)(F)F)cc3)CC2)CCOCC1 [Example 403]
Ki ([1]; value outside parentheses): 7.37 nM
Ki ([2]; value outside parentheses): 2.47 nM

CCCCCC/C=C/C1CCN(S(=O)(=O)C2(C(=O)NO)CCOCC2)CC1 [Example 402]
Ki ([1]; value outside parentheses): 0.19 nM
Ki ([2]; value outside parentheses): 0.58 nM

O=C(NO)C1(S(=O)(=O)N2CCC(COCc3ccc(SC(F)(F)F)cc3)CC2)CCOCC1 [Example 405]
Ki ([1]; value outside parentheses): 3.39 nM
Ki ([2]; value outside parentheses): 0.18 nM

O=C(NO)C1(S(=O)(=O)N2CCN(c3ccc(-c4nn[nH]n4)cc3)CC2)CCOCC1 [Example 419]
Ki ([1]; value outside parentheses): 112 nM
Ki ([2]; value outside parentheses): 34 nM

CCCC#Cc1cnc(N2CCN(S(=O)(=O)C3(C(=O)NO)CCOCC3)CC2)s1 [Example 400]
Ki ([1]; value outside parentheses): 1.4 nM
Ki ([2]; value outside parentheses): 0.28 nM

O=C(NO)C1(S(=O)(=O)N2CCC(COCc3ccc(OC(F)(F)F)cc3)CC2)CCOCC1 [Example 404]
Ki ([1]; value outside parentheses): 2.29 nM
Ki ([2]; value outside parentheses): 0.33 nM

O=C(NO)C1(S(=O)(=O)N2CCC(c3ccc(OCCC(F)(F)F)cn3)CC2)CCOCC1 [Example 418]
Ki ([1]; value outside parentheses): 1.86 nM
Ki ([2]; value outside parentheses): 0.46 nM

CCC(F)(F)CCc1ccc(C2CCN(S(=O)(=O)C3(C(=O)NO)CCOCC3)CC2)cn1 [Example 411]
Ki ([1]; value outside parentheses): 2.04 nM
Ki ([2]; value outside parentheses): 7.75 nM

Cc1ccc(-c2ccc(C3CCN(S(=O)(=O)C4(C(=O)NO)CCOCC4)CC3)nc2)s1 [Example 416]
Ki ([1]; value outside parentheses): 1.49 nM
Ki ([2]; value outside parentheses): 1.35 nM

CCCCc1ccc(N2CCN(S(=O)(=O)C3(C(=O)NO)CCOCC3)CC2)nc1 [Example 168]
Ki ([1]; value not in parenthesis): 0.16 nM
Ki ([2]; value not in parenthesis): 0.21 nM

Cc1ccc(-c2csc(N3CCN(S(=O)(=O)C4(C(=O)NO)CCOCC4)CC3)n2)cc1 [Example 412]
Ki ([1]; value outside parentheses): > 10000 nM
Ki ([2]; value outside parentheses): > 10000 nM

O=C(NO)C1(S(=O)(=O)N2CCN(c3ncc(-c4ccc(Cl)cc4)cn3)CC2)CCOCC1 [Example 66]
Ki ([1]; value not in parenthesis): 0.52 nM
Ki ([2]; value not in parenthesis): 0.25 nM

N#Cc1ccc(-c2cnc(N3CCN(S(=O)(=O)C4(C(=O)NO)CCOCC4)CC3)s2)cc1 [Example 399]
Ki ([1]; value outside parentheses): 0.57 nM
Ki ([2]; value outside parentheses): 0.04 nM

CCCCc1cnc(N2CCN(S(=O)(=O)C3(C(=O)NO)CCOCC3)CC2)nc1 [Example 105]
Ki ([1]; value not in parenthesis): 0.74 nM
Ki ([2]; value not in parenthesis): 1.88 nM

CCCCOc1ccc(C2CCN(S(=O)(=O)C3(C(=O)NO)CCOCC3)CC2)nc1 [Example 410]
Ki ([1]; value outside parentheses): 0.55 nM
Ki ([2]; value outside parentheses): 0.2 nM

O=C(NO)C1(S(=O)(=O)N2CCC(c3ccc(-c4cccs4)c(F)c3)CC2)CCOCC1 [Example 407]
Ki ([1]; value outside parentheses): 1.9 nM
Ki ([2]; value outside parentheses): 0.78 nM
